In brackets after ≈: the same amount, converted by molar mass.
Legend:
Type in all cases: functional
[1] = tested on: Staphylococcus aureus; test: Antibacterial activity against Staphylococcus aureus ATCC 25923 after 16 hrs by CLSI-based broth microdilution method; settings: ATCC 25923, 16 h
[2] = tested on: Staphylococcus aureus; test: Antibacterial activity against methicillin-resistant Staphylococcus aureus ATCC 33591 after 16 hrs by CLSI-based broth microdilution method; settings: ATCC 33591, 16 h
[3] = tested on: Bacillus cereus; test: Antibacterial activity against Bacillus cereus ATCC 14579 after 16 hrs by CLSI-based broth microdilution method; settings: ATCC 14579, 16 h

| SMILES | MIC [1] | MIC [2] | MIC [3] |
| --- | --- | --- | --- |
| CCC/C=C/CCCCc1cccc(O)c1 | 16 µg/mL (≈ 73.3 µM) | 16 µg/mL (≈ 73.3 µM) | 16 µg/mL (≈ 73.3 µM) |
| C#CCCC/C=C/CCCCc1cccc(O)c1 | 8 µg/mL (≈ 33 µM) | 8 µg/mL (≈ 33 µM) | 8 µg/mL (≈ 33 µM) |
| CC(=O)NC[C@H]1CN(c2ccc(N3CCOCC3)c(F)c2)C(=O)O1 [LINEZOLID] | 0.5 µg/mL (≈ 1.48 µM) | 1 µg/mL (≈ 2.96 µM) | 1 µg/mL (≈ 2.96 µM) |

Source: ChEMBL document CHEMBL4619764, “Synthesis of the Cyanobacterial Antibiotics Anaephenes A and B” (2020)
